The record followed here is patent publication US20260070922A1, “PYRAZOLE AND IMIDAZOLE DERIVATIVES AS DUAL OREXIN AND KAPPA-OPIOID RECEPTORS MODULATORS COMPOSITION, METHODS FOR TREATING NEUROLOGICAL AND PSYCHIATRIC DISORDERS” (HAGER BIOSCIENCES, LLC, priority 2022, published 2026).

In experiment [1] the target is T1, Orexin type 1 (OX1R) receptor (Homo sapiens, UniProt O43613).
T1 construct: expressed in transfected cells; host or cells: CHO cells (G418 selection)
T1 sequence (O43613 1-425): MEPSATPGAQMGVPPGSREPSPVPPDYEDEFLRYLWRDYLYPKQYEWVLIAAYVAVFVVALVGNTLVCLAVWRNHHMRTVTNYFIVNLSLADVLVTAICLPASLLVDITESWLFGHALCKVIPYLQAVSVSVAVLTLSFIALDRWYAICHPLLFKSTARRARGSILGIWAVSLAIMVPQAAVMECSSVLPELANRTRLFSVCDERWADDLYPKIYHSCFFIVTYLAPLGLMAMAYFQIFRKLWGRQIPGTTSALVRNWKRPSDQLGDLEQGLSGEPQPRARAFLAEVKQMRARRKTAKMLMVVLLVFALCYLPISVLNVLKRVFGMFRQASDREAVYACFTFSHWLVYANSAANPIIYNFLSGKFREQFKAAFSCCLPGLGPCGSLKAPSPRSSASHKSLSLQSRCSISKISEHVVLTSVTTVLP
In words: In vitro orexin antagonism assay: intracellular calcium measurement (FLIPR), orexin-A 3 nM as agonist. The class given is cell-based. Conditions: for IC50: first value of IC50/Kb cell; for inhibition at 1 µM: read-out: OX1R, % Inh. @ 1 uM; for Kb: second value of IC50/Kb cell. The procedure, abridged:
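CHO cells expressing the human orexin receptor were loaded with 3 μM fluo-4 AM plus 5 mM probenecid, then exposed to antagonist for 120 min before 3 nM orexin-A (final) was added on a FLIPR.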

Experiment [2] addresses T2, human orexin-2 receptor (OX2R) (Homo sapiens, UniProt O43614).
T2 construct: expressed in transfected cells; host or cells: CHO cells (G418 selection)
T2 sequence (O43614 1-444): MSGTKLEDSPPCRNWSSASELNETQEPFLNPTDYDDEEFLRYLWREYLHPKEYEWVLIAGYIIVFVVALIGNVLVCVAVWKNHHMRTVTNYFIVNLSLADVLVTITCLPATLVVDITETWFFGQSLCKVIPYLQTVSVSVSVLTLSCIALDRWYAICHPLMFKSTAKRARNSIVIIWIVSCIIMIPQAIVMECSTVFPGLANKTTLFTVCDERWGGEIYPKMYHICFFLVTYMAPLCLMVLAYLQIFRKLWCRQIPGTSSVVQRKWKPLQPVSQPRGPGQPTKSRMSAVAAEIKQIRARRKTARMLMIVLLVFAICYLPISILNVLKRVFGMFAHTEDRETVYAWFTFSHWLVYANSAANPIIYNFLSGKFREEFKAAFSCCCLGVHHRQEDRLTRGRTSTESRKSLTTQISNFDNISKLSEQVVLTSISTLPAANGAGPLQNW
Described as above. Type of experiment: cell-based. As to conditions: for inhibition at 1 µM: read-out: OX2R, % Inh. @ 1 uM; for IC50: first value of IC50/Kb cell; for Kb: second value of IC50/Kb cell. In a few lines: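 Fluorescence peak on 3 nM orexin-A challenge, read by FLIPR and compared with vehicle, yields IC50 (geometric mean when repeated; may be normalized to an on-plate reference). Antagonists were added 120 min beforehand to fluo-4-loaded recombinant CHO cells expressing human OX1R or OX2R.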

By IC50 is commonly meant the concentration at which inhibition is half-maximal. A word on the Kb: it is the affinity of an antagonist, worked out from how it opposes an agonist. Regarding `O=C(c1nn2cccnc2c1-c1ccccn1)N1CCC[C@H]1Cn1ccc(-c2ccccn2)n1` [Example 185], in experiment [1], the IC50 is 0.016 µM, the inhibition at 1 µM was 94% and the Kb amounted to 0.003 µM. In addition, the inhibition at 1 µM in experiment [2] stood at 61%.
In the same order, the values of `O=C(c1nn2cccnc2c1-c1ccccn1)N1CCC[C@H]1Cc1nc(-c2ccccn2)no1` [Example 188] are 0.029 µM, 82%, 0.006 µM and 23%.
As for `O=C(c1nn2cccnc2c1-c1ccccn1)N1CCC[C@H]1Cc1nc(-c2ccc(F)cn2)no1` [Example 189], in experiment [1], the IC50 is 0.018 µM, the inhibition at 1 µM is 94% and the Kb turned out to be 0.004 µM. The inhibition at 1 µM in experiment [2] came to 43%.
On to `O=C(c1nn2cccnc2c1-c1ccccn1)N1CCC[C@H]1COc1ccc(C(F)(F)F)cn1` [Example 190], for which, in experiment [1], the 50% inhibitory concentration (IC50) worked out at 0.005 µM, the inhibition at 1 µM worked out at 91% and the Kb turned out to be 0.001 µM. Besides, the inhibition at 1 µM in experiment [2] was determined as 28%.
`O=C(c1c(-c2ncccn2)nn2ccccc12)N1CCC[C@H]1COc1ccc(C(F)(F)F)cn1` [Example 191]: in experiment [1], the IC50 came out at 0.049 µM, the inhibition at 1 µM amounted to 100% and the antagonist dissociation constant (Kb) is 0.01 µM. Moreover, the inhibition at 1 µM in experiment [2] was 11%.
Consider `O=C(c1c(-c2ccccn2)nn2ccccc12)N1CCC[C@H]1COc1ccc(C(F)(F)F)cn1` [Example 192], for which, in experiment [1], the IC50 came to 0.011 µM, the inhibition at 1 µM turned out to be 88% and the antagonist dissociation constant (Kb) came to 0.002 µM. Besides, the inhibition at 1 µM in experiment [2] was 49%.
On the same counts, the results for `O=C(c1nn2cccnc2c1-c1ccccn1)N1CCC[C@H]1Cn1ccc(-c2ccc(F)cn2)n1` [Example 193] are 0.016 µM, 91%, 0.003 µM and 71%.
In the same order, the values of `O=C(c1nn2c(c1-c1ccccn1)OCCC2)N1CCC[C@H]1Cn1ccc(-c2ccccn2)n1` [Example 195] are 0.015 µM, 100%, 0.003 µM and 29%.
Consider `O=C(c1nn2c(c1-c1ccccn1)COCC2)N1CCC[C@H]1Cn1ccc(-c2ccc(F)cn2)n1` [Example 196], for which, in experiment [1], the “OX1R, % Inh. @ 1 uM” value was found to be 99%; the half-inhibitory concentration (IC50) was determined as 0.024 µM; the Kb worked out at 0.005 µM. In experiment [2], the “OX2R, % Inh. @ 1 uM” value was found to be 39%.
As for `O=C(c1nn2c(c1-c1ccccn1)OCCC2)N1CCC[C@H]1Cc1nc(-c2ccccn2)no1` [Example 199], the inhibition at 1 µM in experiment [1] is 64%; in experiment [2], 8%.
As to `O=C(c1nn2c(c1-c1ccccn1)OCCC2)N1CCC[C@H]1COc1ccc(C(F)(F)F)cn1` [Example 201], in experiment [1], the IC50 was 0.009 µM, the inhibition at 1 µM is 100% and the Kb stood at 0.002 µM. Moreover, the inhibition at 1 µM in experiment [2] was 19%.
In the same order, the values of `O=C(c1c(-c2ncccn2)nn2ccccc12)N1CCC[C@H]1Cn1ccc(-c2ccc(F)cn2)n1` [Example 203] are 0.017 µM, 98%, 0.004 µM and 78%.
Regarding `O=C(c1c(-c2ncccn2)nn2ccccc12)N1CCC[C@H]1Cn1cc(-c2ccc(F)cn2)cn1` [Example 204], the inhibition at 1 µM came out at 53% in experiment [1] and 66% in experiment [2].
In the case of `O=C(c1c(-c2ccccn2)nn2ccccc12)N1CCC[C@H]1Cn1ccc(-c2ccc(F)cn2)n1` [Example 205], in experiment [1], the IC50 turned out to be 0.012 µM, the inhibition at 1 µM amounted to 99% and the Kb is 0.003 µM. Also, in experiment [2], the half-maximal inhibitory concentration (IC50) was found to be 0.024 µM, the inhibition at 1 µM worked out at 98% and the antagonist equilibrium constant (Kb) was 0.004 µM.
For `O=C(c1c(-c2ccccn2)nn2ccccc12)N1CCC[C@H]1Cn1cc(-c2ccc(F)cn2)cn1` [Example 206], the inhibition at 1 µM in experiment [1] is 67%. In addition, in experiment [2], the concentration for half-maximal inhibition (IC50) was 0.062 µM, the inhibition at 1 µM amounted to 83% and the Kb came to 0.011 µM.
On to `O=C(c1nc2ccccn2c1-c1ccccn1)N1CCC[C@H]1Cn1ccc(-c2ccc(F)cn2)n1` [Example 207], for which, in experiment [1], the IC50 came to 0.03 µM, the inhibition at 1 µM is 99% and the Kb turned out to be 0.006 µM. For the same compound, the inhibition at 1 µM in experiment [2] worked out at 0%.
For `O=C(c1nc2ccccn2c1-c1ccccn1)N1CCC[C@H]1Cc1nc(-c2ccccn2)no1` [Example 209], in experiment [1], the IC50 worked out at 0.3 µM, the inhibition at 1 µM was found to be 75% and the antagonist equilibrium constant (Kb) was determined as 0.063 µM. The inhibition at 1 µM in experiment [2] worked out at 4%.
As for `O=C(c1nc2ccccn2c1-c1ccccn1)N1CCC[C@H]1Cc1nc(-c2ccc(F)cn2)no1` [Example 210], in experiment [1], the IC50 is 0.19 µM, the inhibition at 1 µM is 85% and the antagonist dissociation constant (Kb) came to 0.04 µM. Besides, in experiment [2], the inhibition at 1 µM was 12%.
`O=C(c1nn2c(c1-c1ccccn1)COCC2)N1CCC[C@H]1Cn1ccc(-c2ccccn2)n1` [Example 211]: in experiment [1], the half-maximal inhibitory concentration (IC50) turned out to be 0.019 µM, the inhibition at 1 µM came out at 100% and the Kb was determined as 0.004 µM. Besides, the inhibition at 1 µM in experiment [2] came to 28%.
In the case of `O=C(c1nn2c(c1-c1ccccn1)COCC2)N1CCC[C@H]1Cn1ccc(-c2ccc(F)cn2)n1` [Example 212], in experiment [1], the “OX1R, % Inh. @ 1 uM” value came to 96%; the half-inhibitory concentration (IC50) was determined as 0.035 µM; the Kb came out at 0.007 µM. Besides, in experiment [2], the “OX2R, % Inh. @ 1 uM” value was 46%.
Turning to `O=C(c1nn2c(c1-c1ccccn1)COCC2)N1CCC[C@H]1Cn1cc(-c2ccccn2)cn1` [Example 213], in experiment [1], the IC50 amounted to 0.22 µM, the inhibition at 1 µM came out at 77% and the Kb stood at 0.047 µM. In experiment [2], the inhibition at 1 µM was 33%.
For the compound `O=C(c1nn2c(c1-c1ccccn1)COCC2)N1CCC[C@H]1Cn1cc(-c2ccc(F)cn2)cn1` [Example 214], the inhibition at 1 µM was 66% in experiment [1] and 32% in experiment [2].
With `O=C(c1nc2n(c1-c1ccccn1)CCOC2)N1CCC[C@H]1Cn1ccc(-c2ccccn2)n1` [Example 215], the values for the inhibition at 1 µM in experiment [1] and in experiment [2] were 64% and 12%, respectively.
Take `O=C(c1nc2n(c1-c1ccccn1)CCOC2)N1CCC[C@H]1Cn1ccc(-c2ccc(F)cn2)n1` [Example 216]: in experiment [1], the IC50 was determined as 0.16 µM, the inhibition at 1 µM amounted to 70% and the antagonist dissociation constant (Kb) is 0.034 µM. Besides, the inhibition at 1 µM in experiment [2] stood at 24%.
On the same counts, the results for `O=C(c1nc2n(c1-c1ccccn1)CCOC2)N1CCC[C@H]1Cn1cc(-c2ccccn2)cn1` [Example 217] are 0.21 µM, 76%, 0.045 µM and 57%.
As to `O=C(c1nc2n(c1-c1ccccn1)CCOC2)N1CCC[C@H]1Cn1cc(-c2ccc(F)cn2)cn1` [Example 218], in experiment [1], the IC50 worked out at 0.12 µM, the inhibition at 1 µM came to 79% and the antagonist equilibrium constant (Kb) came out at 0.025 µM. The inhibition at 1 µM in experiment [2] came out at 74%.
Turning to `O=C(c1nc2n(c1-c1ccccn1)CCOC2)N1CCC[C@H]1Cc1nc(-c2ccccn2)no1` [Example 219], the results for the inhibition at 1 µM in experiment [1] and in experiment [2] were 25% and 0%, respectively.
In the same order, the values of `O=C(c1nc2n(c1-c1ccccn1)CCOC2)N1CCC[C@H]1Cc1nc(-c2ccc(F)cn2)no1` [Example 220] are 21% and 0%.
For the compound `O=C(c1nn2c(c1-c1ccccn1)CCOC2)N1CCC[C@H]1Cc1nc(-c2ccccn2)no1` [Example 221], the inhibition at 1 µM worked out at 56% in experiment [1] and 0% in experiment [2].
With `O=C(c1nn2c(c1-c1ccccn1)CCOC2)N1CCC[C@H]1Cc1nc(-c2ccc(F)cn2)no1` [Example 222], the inhibition at 1 µM in experiment [1] turned out to be 55%; in experiment [2], 12%.
On to `O=C(c1nn2c(c1-c1ccccn1)COCC2)N1CCC[C@H]1COc1ccc(C(F)(F)F)cn1` [Example 223], for which, in experiment [1], the “OX1R, % Inh. @ 1 uM” value worked out at 97%; the IC50 came out at 0.005 µM; the antagonist equilibrium constant (Kb) was 0.001 µM. Further, in experiment [2], the “OX2R, % Inh. @ 1 uM” value is 21%.
